Data: patent US20190282600A1, “COMBINATION THERAPIES TARGETING TERT DEPENDENCY FOR CANCER THERAPY” (The Wistar Institute of Anatomy and Biology, priority 2018, published 2019)

Tests used:
[1] = literature; cited from earlier work
[2] = literature; cited from earlier work; remark: listed apart in the source
[3] = test system: NRAS mutant melanoma cells; test: Telomere dysfunction-induced foci (TIF) assay, IF-FISH; format: cell-based, Human; conditions: WM3000 cells transduced with TERT shRNA, NAC 1 mM for 7 days
Protocol: NRAS mutant melanoma cells WM3000 were transduced with TERT shRNA and treated with NAC (mM) for 7 days. […] Representative images are shown. (scale bar=10 μm). Quantification of TIF positive cells is plotted in FIG. 13b. Cells were scored as TIF positive when three or more g-H2AX foci (green) were co-localizing with telomere foci (red). Data represent average of thirteen fields imaged +/−SD.
NRAS^mut melanoma cells were treated with 6-thio-dG for 6, 12 or 18 days. As presented in FIG. 15a, relative cell number was assessed by Crystal Violet assay and calculated relative to DMSO-treated cells. Data represent average of three independent experiments +/−SD. […] NRAS^mut cells were treated with 6-thio-dG for 7 days and telomere induced foci (TIF) was determined by indirect immunofluorescence combined with fluorescence in situ hybridization (FISH) (FIG. 15c). […] Quantification of TIF assay is plotted in FIG. 15d. Cells were scored as TIF positive when four or more γ-H2AX foci (green, center row of FIG. 15c labelled as γH2AX) were co-localizing with telomere foci (red, top row of FIG. 15c labelled as Telomeres). […] P values were calculated by unpaired Student's t-test.
For TIF analysis, indirect immunofluorescence (IF) combined with fluorescence in situ hybridization (FISH) was performed as previously described with some modifications. […] TIF were quantified from at least three independent experiments.

[4] = test system: NRAS-WT/BRAF-WT melanoma cells; test: Cell death by Annexin V/PI flow cytometry; format: cell-based, Human; conditions: 1 μM 6-thio-dG, 5 μM Gam, single agents or in combination
Protocol: (§1) FIGS. 5a to 5e provide bar graphs showing that combination treatment with 6-Thio-dG and Gamitrinib (Gam) triggers death selectively in NRAS mutant tumor cells. NRAS-WT/BRAF-WT melanoma cells (FIG. 5a), NRAS-WT/BRAF-mut melanoma cells (FIG. 5b), NRAS mutant neuroblastoma cells (FIG. 5c), NRAS-WT/KRAS-mutant colon cancer cells (FIG. 5d), and NRAS-WT/KRAS-mutant lung cancer cells were treated with 1 μM 6-thio-dG for 5 days (FIG. 5e). At day 5, culture medium was replaced and cells treated with 1 μM 6-thio-dG plus 5 μM Gam for two more days. Cells were stained with Annexin V and PI and percent cell death was determined by FACS. Data represent average of three independent experiments +/−SEM; p values were calculated using un-paired Student's t-test; *p<0.05; **p<0.001.
(§2) Cells were seeded in 96-well plates and treated with drugs. After 6 days, cell viability was assessed following 6h incubation with […] Alamar Blue (ThermoFisherScientific, Philadelphia, Pa.) by measuring fluorescence using an EnVision Xcite Multilabel plate reader (Perkin Elmer, Waltham, Mass.). Cell death was determined by flow cytometry using PSVue-643 (Molecular Targeting Technologies) or Annexin V (640919, Biolegend, San Diego, Calif.) and Propidium Iodide (Sigma) staining. Samples were analyzed using a BD LSRII flow cytometer (BD Biosciences, San Jose, Calif.).

[5] = test system: BRAF mutant melanoma cells; test: Cell death by Annexin V/PI flow cytometry; format: cell-based, Human; conditions: 1 μM 6-thio-dG, 5 μM Gam, single agent or in combination
Protocol: as §1, §2

NRAS mutant cells = conditions: Chae et al., 2012; cited from earlier work
SOD2 = conditions: Siegelin et al., 2011; cited from earlier work
[6] = test system: prostate, breast and lung cancer, BRAF-V600E-mutant melanoma; conditions: Chae et al., 2012; cited from earlier work
[7] = test system: NRAS mutant melanoma cells; test: Cell death by flow cytometry (PSVue or Annexin V/PI); format: cell-based, Human; conditions: cells transduced with TERT shRNA, 7 days post infection 5 μM Gamitrinib for 48 h
Protocol: FIGS. 2a to 2c show NRAS^mut melanoma cells (FIG. 2a), BRAF-V600E/NRAS mutant cells derived from melanoma patients resistant to BRAF/MEK inhibitors (FIG. 2b), or non-transformed melanocytes and fibroblasts (FIG. 2c) were treated with 6-thio-dG for 7 days. Cell viability was measured by Alamar Blue assay and calculated relative to DMSO-treated cells. […] Cell death was assessed by PSVUe staining. Percent of apoptotic cells is shown. […] Mean TRF length expressed as kilobase pairs is indicated at the bottom. […] FIG. 2g provides a bar graph showing that DNA damage was assessed by γH2AX staining. Data represent average from three independent experiments ±SEM. *p<0.05; **p<0.01; ***p<0.005 in unpaired Student's t-test. As presented in FIG. 2h, mice bearing established WM3000 or M93-047 NRAS^mut tumors were treated with vehicle control or 6-thio-dG (2.5 mg/kg i.p; q.d). Tumor volume was measured and average tumor volume (n=4) ±SEM was plotted vs. time.
FIGS. 3a to 3g provides graphs showing that telomere dysfunction enhances oxidative stress leading to upregulation of an antioxidant program. […] Mitochondrial superoxide production was measured by MitoSox Red fluorescence (FIGS. 3c, and 3d) and expressed as fluorescence relative to vector or DMSO controls. […] FIG. 3f provides a bar graph showing that SOD2 was silenced using shRNA. Transduced M93-047 cells were treated with DMSO or 1 μM of 6-thio-dG and cell death was assessed by Annexin V/PI straining. As presented in FIG. 3g, M93-047 cells were transduced with a SOD2 lentiviral construct or empty vector control (pLX304). Transduced cells were treated with increasing doses (1, 2.5 and 5 μM) of 6-thio-dG for 7 days and cell death was assessed. Data represent average from three independent experiments ±SEM. *p<0.05; **p<0.01; ***p<0.005 in unpaired Student's t-test.
FIGS. 4a to 4e provides bar graphs showing that induction of telomere and mitochondrial dysfunction triggers cell death in NRAS mutant melanoma. […] Cell death was assessed by Annexin V and PI staining. […] Cells were stained with Annexin V and PI and percent cell death was determined by flow cytometry. […] P values were calculated using unpaired Student's t-test; * p<0.05; *** p<0.005.
As presented in FIG. 16a, SOD2 was silenced using shRNA. Transduced WM3000 cells were treated with DMSO or 1 μM of 6-thio-dG and cell death was assessed by Annexin V/PI straining. […] Transduced cells were treated with increasing doses (1, 2.5 and 5 μM) of 6-thio-dG for 10 days and cell death was assessed. […]
In FIG. 17a, NRAS^mut melanoma cells were treated with 6-thio-dG (1 μM) for 7 days total. […] Percent cell death was determined by flow cytometry following staining of cells with Annexin V and Propidium iodide. […]

KRAS mutant HCT116 cells = test: Cell death by Annexin V/PI flow cytometry; format: cell-based; conditions: 1 μM 6-thio-dG, 5 μM Gam
Protocol: as §1, §2

KRAS mutant A549 cells = test: Cell death by Annexin V/PI flow cytometry; format: cell-based; conditions: 1 μM 6-thio-dG, 5 μM Gam
Protocol: as §1, §2

[8] = test system: NRAS mutant SKNAS neuroblastoma cells; test: Cell death by Annexin V/PI flow cytometry; format: cell-based; conditions: 1 μM 6-thio-dG, 5 μM Gam, single agents or in combination
Protocol: as §1, §2

[9] = test system: NRAS mutant melanoma spheroids; test: 3D collagen-embedded tumor spheroids, Live/Dead staining; format: cell-based, Human; conditions: 6-thio-dG 5 μM and Ganetespib 5 μM, day 7
Protocol: FIGS. 6a to 6e provide results showing that combining 6-thio-dG and Gamitrinib inhibits the growth of 3D melanoma spheroids and NRAS-mutant xenograft tumors. […] 4a to 4e. On day 7, spheroids were stained with Calcein AM (live cells; green) and EtBr (dead cells; red) and imaged using an inverted microscope (4X; scale bar=250 μm). […] P values were calculated using unpaired Student's t-test. *p<0.05, ** p<0.01, ***p<0.005, when comparing vehicle control vs. combination treatment groups. As presented in FIG. 6d, treatment was discontinued after 14 days, and mice were followed until tumor volume reached a preset volume (1500 mm^3). Kaplan Meier survival curves of mice treated for 14 days. p-values were calculated by Mantel-Cox log-rank test; *p<0.05, **p<0.01, ***p<0.005. Animal weight (grams) before treatment (Start of TX) and at the end of the study (End of TX) was assessed, recorded for every mouse enrolled in the study and plotted in FIG. 6e. Mean and SEM are depicted (n=7 mice/treatment group). Statistical significance was assessed by unpaired Student's t-test.
In FIG. 17a, NRAS^mut melanoma cells were treated with 6-thio-dG (1 μM) for 7 days total. At day 5, culture medium was replaced and cells were treated with 1 μM 6-thiodG plus 1 mM Phenformin for two more days. Percent cell death was determined by flow cytometry following staining of cells with Annexin V and Propidium iodide. […]

imetelstat
efficacy [1]: efficacy | activity [2]: limited activity

CC(=O)N[C@@H](CS)C(=O)O [NAC, N-acetyl-L-cysteine]
number of TIF [3]: attenuated the number of TIF

Gamitrinib
cell death [4]: did not induce cell death | cell death [5]: 75-80% | anti-cancer activity as a single agent (NRAS mutant cells): limited activity | SOD2 levels (SOD2): downregulate SOD2 levels | mitochondrial membrane potential [6]: rapid and complete loss of mitochondrial membrane potential | cell death (Annexin V/PI) [7]: enhanced the cytotoxic effects of Gamitrinib | cell death (KRAS mutant HCT116 cells): did not induce substantial death | cell death (KRAS mutant A549 cells): did not induce substantial death | cell death [8]: triggered significant death

CC(C)c1cc(-c2n[nH]c(=O)n2-c2ccc3c(ccn3C)c2)c(O)cc1O [ganetespib]
enhancement of 6-Thio-dG efficacy in spheroids [9]: did not enhance the efficacy of 6-Thio-dG
